Experimental data from article PMC11477141, “Chemokine Receptor N-Terminus Charge Dictates Reliance on Post-Translational Modifications for Effective Ligand Capture and Following Boosting by Defense Peptides” (International Journal of Molecular Sciences, 2024).
Where no end group is shown, it is not given here.

Tests used:
[1] = tested on: S6S7T16S17AAAA-CCR5; assay: BRET CAMYEL Gαi signaling via S6S7T16S17AAAA-CCR5; format: cell-based, human; settings: CHO cells, n = 3
Procedure: BRET measurements of Gαi signaling and β-arrestin recruitment: Cells were seeded in 6-well plates (500,000 cells/well) and transiently transfected the following day. For BRET measurements of Gαi signaling, cells were transfected with vectors encoding the human chemokine receptors as indicated (160 ng/well) and the CAMYEL sensor (cAMP sensor, YFP-Epac-RLuc) (840 ng/well) using Lipofectamine (6 µL/well). Briefly, DNA was dissolved in 125 µL OPTI-MEM and Lipofectamine was dissolved in 125 µL OPTI-MEM. The DNA and Lipofectamine solutions were combined into a transfection mixture. The transfection mixture was added dropwise to cells incubated in OPTI-MEM (1 mL/well). Transfections were terminated after 5 h by adding 1 mL of fresh culture medium on top of the OPTI-MEM. The following day the cells were loosened from the plates in PBS with 5 mM glucose and subsequently aliquoted in white 96-well iso plates (~25,000 cells/well). […] The BRET signal is determined as the ratio eYFP (530 nm)/Rluc (480 nm).
BRET principle with CAMYEL: For quantification of signaling initiated immediately downstream of receptor activation, we used the cAMP binding CAMYEL sensor to perform bioluminescence resonance energy transfer (BRET) based assays. […] The BRET ratio is determined as the ratio between YFP/Rluc, and an increase in BRET ratio indicates a decrease in cAMP and thus increased chemokine receptor activation. […]

[2] = tested on: CCR5-1like; assay: BRET CAMYEL Gαi signaling via chimeric receptor M1-CCR5-1like; format: cell-based, human; settings: n = 3
Source text: To finally determine if the lack of acidic amino acids in the CCR5 N-terminus can explain the dependency of this receptor on O-glycosylation for effective ligand interaction, we constructed a CCR5 receptor chimera, where the most acidic N-terminal region of CCR1 was inserted into the CCR5 N-terminus, creating the chimeric receptor CCR5-1like (Figure 7).
Figure 7 Receptor N-termini representing CCR1, CCR5, and the chimeric CCR5-1like. The CCR1 N-terminus contains a lot of acidic amino acids (outlined in red) in the form of aspartic acid (D) and glutamic acid (E), whereas CCR5 only contains a few. The chimeric receptor CCR5-1like that contains part of the CCR1 receptor N-terminus (ETTTDYDE) resembles CCR1 with regard to acidic amino acid content and spacing, but they are not the same.
BRET measurements of Gαi signaling and β-arrestin recruitment: Cells were seeded in 6-well plates (500,000 cells/well) and transiently transfected the following day. For BRET measurements of Gαi signaling, cells were transfected with vectors encoding the human chemokine receptors as indicated (160 ng/well) and the CAMYEL sensor (cAMP sensor, YFP-Epac-RLuc) (840 ng/well) using Lipofectamine (6 µL/well). Briefly, DNA was dissolved in 125 µL OPTI-MEM and Lipofectamine was dissolved in 125 µL OPTI-MEM. The DNA and Lipofectamine solutions were combined into a transfection mixture. The transfection mixture was added dropwise to cells incubated in OPTI-MEM (1 mL/well). Transfections were terminated after 5 h by adding 1 mL of fresh culture medium on top of the OPTI-MEM. The following day the cells were loosened from the plates in PBS with 5 mM glucose and subsequently aliquoted in white 96-well iso plates (~25,000 cells/well). When using C21TP variants and defense peptides (hBD2 and histatin), these were added to a final concentration of 10 μM/well, while an equal amount of PBS was added to control cells. The bioluminescence substrate coelenterazine was added to a final conc. of 5 µM. After 10 min, varying ligand concentrations were added. For BRET measurements of Gαi signaling, forskolin was added 5 min after the addition of the ligand, to a final conc. of 5 µM. The plates were kept in the dark at all times. A Perkin Elmer Envision machine was used for measuring the emission signals at 530 and 480 nm. The BRET signal is determined as the ratio eYFP (530 nm)/Rluc (480 nm).
BRET principle with CAMYEL: For quantification of signaling initiated immediately downstream of receptor activation, we used the cAMP binding CAMYEL sensor to perform bioluminescence resonance energy transfer (BRET) based assays. In this assay we measure changes in intracellular cAMP levels in response to receptor activation. Activation of chemokine receptors lead to a decrease in cAMP through inhibition of adenylate cyclase (AC). In the current setup we initially add forskolin that stimulates AC directly to induce an increase in intracellular cAMP, and we then measure the ability of a ligand (chemokine) to counteract the forskolin-induced increase in cAMP. The cAMP sensor (CAMYEL cAMP sensor, YFP-Epac-RLuc) carries the donor Renilla luciferase (Rluc) and the acceptor YFP. Coelenterazine is a substrate for Rluc that will emit light at around 475 nm upon enzymatic cleavage catalyzed by Rluc. When Rluc and YFP are in close proximity, the energy from the emitted light from coelenterazine can be transferred to YFP, resulting in an excitation of YFP, leading to a BRET signal around 525 nm. […]

[3] = HEK293 WT, DeltaSia and sC cells, 10 µM peptide

Row | Substance | Gαi signaling via S6S7T16S17AAAA-CCR5 compared to WT-CCR5 [1] | Gαi signaling via M1-CCR5-1like in DeltaSia and sC cells compared to WT cells ([2]; HEK293 DeltaSia and sC) | boosting of CCL5 signaling via S6S7T16S17AAAA receptor variant ([1]; 10 µM peptide) | boosting of CCL3 signaling via M1-CCR5-1like [2, 3] | boosting of CCL8 signaling via M1-CCR5-1like [2, 3]
1 | CCL5: human chemokine from Peprotech, overall basic | completely abolished | persists in DeltaSia and sC to almost the same high level as observed in WT cells | – | – | –
2 | RKDRGASKTGKKGKGSKGCKRTERSQTPKGP [C21TP^81-111] | – | – | not in S6S7T16S17AAAA | absent | absent
